What was measured:
[1] = biological target: T1, human carbonic anhydrase isoenzyme II (hCA II) (Homo sapiens, UniProt P00918); test: In vitro inhibition of human carbonic anhydrase isoenzyme II (dansylamide fluorescence); type: binding; conditions: hCA II from erythrocytes 10^-7 M, dansylamide 2.25x10^-6, 60 min at 37° C., single measurements; read-out: hCA II inhibiting effect in vitro, IC50
T1 construct: human carbonic anhydrase isoenzyme II from erythrocytes (Sigma-Aldrich); purchased Sigma-Aldrich; host or cells: human erythrocytes (natural source)
Procedure: 1. In vitro Inhibition of Human Carbonic Anhydrase Isoenzyme II (hCA II)
The test compounds of general Formula I in 96 well microplates were diluted with aqua bidest by using an automatic pipettor (CyBiWell®). From the different dilution plates, aliquots of 20 μl were transferred to the 96 well black assay plates with a pipetting station (Tecan Genesis®). In a second step, 148 μl of potassium phosphate buffer (20 mM, pH 7.4) was added, and as a third step, 20 μl of enzyme solution (1 μM human carbonic anhydrase isoenzyme II from erythrocytes (Sigma-Aldrich), dissolved in potassium phosphate buffer) incubated for 60 min at room temperature and the fluorescence signal (Tecan Ultra® fluorescence reader; excitation wavelength: 280 nm; emission wavelength: 465 nm) read at the end of the preincubation period (FLU-1). After the preincubation time, 20 μl of aqueous dansylamide solution (1 mM dansylamide (Sigma-Aldrich), dissolved in hydrochloric acid) were added and the fluorescence signal read every 10 min for a period of 60 min at 37° C. For calculation, the fluorescence data of the time point 60 min (FLU-2) were used. The total volume of assay mixture amounted to 208 μl. The final concentration of carbonic anhydrase II was 10^−7 M/L, of dansylamide 2.25×10^−6 and of compounds from 10^−8 M/L up to 10^−5 M/L. Final concentration of DMSO as compound solvent was 0.1 mM. Each microplate also contained blanks without compound and enzyme, controls without compound and ethoxzolamide (final concentration 5×10^−8 M/L). All data reflect single measurements. Data were expressed as % inhibition after calculation by the formula: % inhibition=100((1−(FLU-2cpd−FLU-2blank−FLU-1cpd+FLU-1blank)/(FLU-2control−FLU-2blank−FLU-1control−FLU-1blank))
The % inhibition data for each compound and the respective final concentrations were used for IC50 calculations by using the Prism 4 software. Concentration action figures were calculated by applying the Prism algorithm for nonlinear regression (curve-fit): sigmoidal dose response with variable slope and the constraints: top: 100 and bottom 0.

C57BI/6 mice = test: Acute in vivo food intake test in mice; conditions: 24 h food intake, C57BI/6 mice on high caloric diet, 100 mg/kg/day by oral gavage in two half doses
Procedure: 2. Acute in vivo Food Intake Test in Mice
The studies were carried out in male or female C57BI/6 mice (n=8-12 per group). The mice were kept on an inverted 12/12 h light/dark cycle (lights on 22:00). They were allowed food (high caloric diet) and water ad libitum. Food intake and water consumption was measured daily. The test compound of general Formula I was suspended in 1% methylcellulose in water and 2% (v/v) of Poloxamer 188 (Lutrol F68®) and administered by oral gavage at a dose of 100 mg/kg/day. One half of the dose was administered at 7.00-9.00 h; the remaining half of the dose was administered between 15.00-15.30 h.
In the test model described above, the test substances caused a decrease of the animals' 24 h food intake to the percentages of food intake when compared to control as given in the following Table 2.

NS(=O)(=O)N1CCC2(CC1)CC(=O)c1ccccc1O2 [Example 1]
IC50 [1]: 6.6 µM | melting point: 172 to 174 °C | food intake [% of control] (C57BI/6 mice): 83 % of control

COc1ccc2c(c1)C(=O)CC1(CCN(S(N)(=O)=O)CC1)O2 [Example 3]
IC50 [1]: 7.7 µM | melting point: 172 to 177 °C

NS(=O)(=O)N1CCC2(CC1)CC(=O)c1cc(Cl)ccc1O2 [Example 4]
IC50 [1]: 6.4 µM
